Assays:
[1] = tested on: kindled seizures (amygdala); conditions: delivery of about 10^−6 to about 10^−12 M TRH to the brain; Example 3 and Chepournova et al.; cited from earlier work
rat hippocampal slices = assay: 50 mM [K+]-stimulated glutamate release from superfused hippocampal slices; type: cell-based; conditions: for glutamate at 10 min. post stimulation: control 4.37±1.29, p<0.05; for peak 50 mM [K+]-stimulated glutamate release: control 48.05±8.59, p<0.001
Method: Enhanced excitatory amino acid release is suspected in pathways associated with seizures and excitotoxicity. In this regard, superfused hippocampal slices were used to investigate whether TRH could inhibit glutamate release in vitro. Rat hippocampi were removed and sliced transversely (500/μm) under low magnification. Slices were weighed, washed in cold saline, transferred to individual tissue chambers floated in a 37°/C. water bath, and were equilibrated in oxygenated (95% O2/5% CO2) Kreb's buffer (KRB) at 37° C. for 120 min. (0.5 ml/min). Slice chambers were then superfused 10 min. with KRB (control), or KRB containing 10 μM, 1 μM, or 0.1 μM TRH, respectively, prior to 5 min. stimulation with modified KRB (50 mM [K^+]±TRH). Fractions (1 min.) were collected during the 5 min. stimulation and for an additional 10 min. (0.5 ml/min.) thereafter, and analyzed for glutamate by HPLC.

Gαq/11 G-proteins = conditions: sustained TRH exposure to its receptor; cited from earlier work

NC(=O)[C@@H]1CCCN1C(=O)[C@H](Cc1cnc[nH]1)NC(=O)[C@@H]1CCC(=O)N1 [TRH, Thyrotropin-releasing hormone]
effect in kindling studies [1]: anticonvulsant | glutamate at 10 min. post stimulation (rat hippocampal slices; 0.1 μM TRH): 1.54±0.43 μMg/fraction | peak 50 mM [K+]-stimulated glutamate release (rat hippocampal slices; 0.1 μM TRH): 1.38±0.28 μMg/fraction | glutamate at 10 min. post stimulation (rat hippocampal slices; 1 μM TRH): 1.11±0.26 μMg/fraction | peak 50 mM [K+]-stimulated glutamate release (rat hippocampal slices; 1 μM TRH): 1.54±0.33 μMg/fraction | glutamate at 10 min. post stimulation (rat hippocampal slices; 10 μM TRH): 1.35±0.48 μMg/fraction | peak 50 mM [K+]-stimulated glutamate release (rat hippocampal slices; 10 μM TRH): 2.35±0.50 μMg/fraction | effect on glutamate release by 50 mM [K+] stimulation given 15 min. later (rat hippocampal slices; perfusion (5 min.) with KRB+10 μM TRH, FIG. 6): significantly (p<0.05) blocked glutamate release | reduction of Gαq/11 G-proteins (Gαq/11 G-proteins): 20-70%
